According to patent US6673938B1, “Substituted pyridine herbicides” (Syngenta Participations AG, priority 1998, dated 2004):

Key:
[1] = test system: Monocotyledonous and dicotyledonous test plants; experiment: Herbicidal action before emergence of the plants (pre-emergence action); format: in vivo; conditions: evaluated after 3 weeks, nine-step scale; for pre-emergence action, Cyperus / pre-emergence action, Ipomoea / pre-emergence action, Setaria / pre-emergence action, Sinapis / pre-emergence action, Solanum / pre-emergence action, Stellaria: 2000 g/ha; for Pre-emergence action, Abutilon / Pre-emergence action, Amaranthus / Pre-emergence action, Chenop. / Pre-emergence action, Digitaria / Pre-emergence action, Echino. / Pre-emergence action, Panicum: 250 g/ha
Method: Monocotyledonous and dicotyledonous test plants are sown in standard soil in plastic pots. Immediately after sowing, the test substances as aqueous suspensions (prepared with a 25% wettable powder (Example F3, b) in accordance with WO 97/34485) or as emulsions (prepared with a 25% emulsion concentrate (Example F1, c)) are sprayed on at a rate of 2 kg of a.i./ha or 250 g of a.i./ha (500 l of water/ha). The test plants are then grown in the greenhouse under optimal conditions. After a test period of 3 weeks, the experiment is evaluated with reference to a nine-step scale (1=complete damage, 9=no effect). Score figures of 1 to 4 (in particular 1 to 3) mean a good to very good herbicidal action.

[2] = test system: Monocotyledonous and dicotyledonous test plants; experiment: Post-emergence herbicidal action; format: in vivo; conditions: evaluated after approximately 18 days; for Post-emergence action, Ipomoea / Post-emergence action, Lolium / Post-emergence action, Setaria / Post-emergence action, Sinapis / Post-emergence action, Solanum / Post-emergence action, Stellaria: 2000 g/ha, sprayed in 4- to 6-leaf stage, nine-step scale; for Post-emergence action: Abutilon (score, nine-step scale) / Post-emergence action: Chenop. (score, nine-step scale) / Post-emergence action: Digitaria (score, nine-step scale) / Post-emergence action: Echino. (score, nine-step scale) / Post-emergence action: Ipopur. (score, nine-step scale) / Post-emergence action: Panicum (score, nine-step scale) / Post-emergence action: Xanth. (score, nine-step scale): 250 g/ha, sprayed at 4- to 6-leaf stage
Method: Monocotyledonous and dicotyledonous test plants are grown in the greenhouse in plastic pots containing standard soil, and, in the 4- to 6-leaf stage, sprayed with an aqueous suspension of the test substances of the formula I prepared with a 25% wettable powder (Example F3, b) in accordance with WO 97/34485) or with an emulsion of the test substances of the formula I prepared with a 25% emulsion concentrate (Example F1, c) in accordance with WO 97/34485), corresponding to a rate of 2 kg of a.i./ha or 250 g of a.i./ha (500 l of water/ha). The test plants are subsequently grown on in the greenhouse under optimal conditions. After a test period of approximately 18 days, the test is evaluated with reference to a nine-step scale (1=complete damage, 9=no effect). Score figures of 1 to 4 (in particular 1 to 3) mean a good to very good herbicidal action. In this test, the compounds of the formula I show a potent herbicidal action.

Compound	pre-emergence action, Cyperus [1]	pre-emergence action, Ipomoea [1]	pre-emergence action, Setaria [1]	pre-emergence action, Sinapis [1]	pre-emergence action, Solanum [1]	pre-emergence action, Stellaria [1]	Post-emergence action, Ipomoea [2]	Post-emergence action, Lolium [2]	Post-emergence action, Setaria [2]	Post-emergence action, Sinapis [2]	Post-emergence action, Solanum [2]	Post-emergence action, Stellaria [2]	further results
Cc1nc(C(F)(F)F)ccc1C(=O)C1=C(O)C(C)CC(C)C1=O (stereo not drawn) [A2-B46 (cis)]	1	2	1	2	1	2	1	2	3	1	2	2	
Cc1nc(C(F)(F)F)ccc1C(=O)C1=C(O)C(C)CC(C)C1=O (stereo not drawn) [A2-B46 (trans)]	1	2	1	2	1	2	1	2	2	1	1	2	
Cc1nc(C(F)(F)F)ccc1C(=O)C1=C(O)C(C)CCC1=O (stereo not shown) [Compound A2-B2]	1	1	1	1	1	2	1	2	2	1	2	2	
CCC1(C)CCC(=O)C(C(=O)c2ccc(C(F)(F)F)nc2C)=C1O (stereo not shown) [Compound A2-B25]	2	3	2	2	1	2	1	2	2	2	1	2	
Cc1nc(C(F)(F)F)ccc1C(=O)C1=C(O)C(C)(S(C)(=O)=O)CCC1=O (stereo not shown) [Compound A2-B31]	2	3	4	2	1	2	2	2	2	1	2	2	
COC1(C)CCC(=O)C(C(=O)c2ccc(C(F)(F)F)nc2C)=C1O (stereo not shown) [Compound A2-B33]	1	3	2	2	1	3	2	4	2	1	2	2	
COC(=O)C1C(O)=C(C(=O)c2ccc(C(F)(F)F)nc2C)C(=O)CC1C (stereo not shown) [Compound A2-B144]	3	4	2	2	2	4							
Cc1nc(C(F)(F)F)ccc1C(=O)C1=C(O)C(C)(C)OCC1=O [Compound A2-B552]	1	2	2	2	1	2							
COC(=O)C1(OC)CCC(=O)C(C(=O)c2ccc(C(F)(F)F)nc2C)=C1O (stereo not shown) [Compound A2-B1067]	2	3	2	2	3	3							
COCc1nc(C(F)(F)F)ccc1C(=O)C1=C(O)CC(C)(C)CC1=O [Compound A8-B1063]													Pre-emergence action, Abutilon [1]: 2; Pre-emergence action, Amaranthus [1]: 4; Pre-emergence action, Chenop. [1]: 1; Pre-emergence action, Digitaria [1]: 3; Pre-emergence action, Echino. [1]: 3; Pre-emergence action, Panicum [1]: 2
COCc1nc(C(F)(F)F)ccc1C(=O)C1=C(O)C(C)C2CC2C1=O (stereo not shown) [Compound A8-D109]													Post-emergence action: Abutilon (score, nine-step scale) [2]: 3; Post-emergence action: Chenop. (score, nine-step scale) [2]: 3; Post-emergence action: Digitaria (score, nine-step scale) [2]: 3; Post-emergence action: Echino. (score, nine-step scale) [2]: 3; Post-emergence action: Ipopur. (score, nine-step scale) [2]: 2; Post-emergence action: Panicum (score, nine-step scale) [2]: 3; Post-emergence action: Xanth. (score, nine-step scale) [2]: 1
CCOC(=O)C1(C)C(O)=C(C(=O)c2ccc(C(F)(F)F)nc2COC)C(=O)C2CC21 (stereo not shown) [Compound A8-D111]													Post-emergence action: Abutilon (score, nine-step scale) [2]: 3; Post-emergence action: Chenop. (score, nine-step scale) [2]: 3; Post-emergence action: Digitaria (score, nine-step scale) [2]: 3; Post-emergence action: Echino. (score, nine-step scale) [2]: 3; Post-emergence action: Ipopur. (score, nine-step scale) [2]: 2; Post-emergence action: Panicum (score, nine-step scale) [2]: 3; Post-emergence action: Xanth. (score, nine-step scale) [2]: 1
COCc1nc(C(F)(F)F)ccc1C(=O)C1=C(O)CCC=C(C)C1=O [Compound A8-F5]													Post-emergence action: Abutilon (score, nine-step scale) [2]: 3; Post-emergence action: Chenop. (score, nine-step scale) [2]: 3; Post-emergence action: Digitaria (score, nine-step scale) [2]: 3; Post-emergence action: Echino. (score, nine-step scale) [2]: 4; Post-emergence action: Ipopur. (score, nine-step scale) [2]: 3; Post-emergence action: Panicum (score, nine-step scale) [2]: 4; Post-emergence action: Xanth. (score, nine-step scale) [2]: 3
Cc1nc(C(F)(F)C(F)(F)F)ccc1C(=O)C1=C(O)C(C)(C)CCC1=O [Compound A34-B24]							1	2	2	1	2	2	
Cc1nc(C(F)(F)C(F)(F)C(F)(F)F)ccc1C(=O)C1=C(O)CCCC1=O [Compound A64-B1]							2	3	4	1	1	2	
Cc1cc(C(F)(F)F)ncc1C(=O)C1=C(O)C(C)(C)CCC1=O [Compound A531-B24]							2	2	2	1	2	2	
COc1nc(C(F)(F)F)ccc1C(=O)C1=C(O)C(C)(C)CCC1=O [Compound A1022-B24]													Pre-emergence action, Abutilon [1]: 3; Pre-emergence action, Amaranthus [1]: 4; Pre-emergence action, Chenop. [1]: 1; Pre-emergence action, Digitaria [1]: 4; Pre-emergence action, Echino. [1]: 4; Pre-emergence action, Panicum [1]: 2
Cc1c(C(=O)C2=C(O)CCCC2=O)ccc(C(F)(F)F)[n+]1[O-] [Compound A1210-B1, 3-Hydroxy-2-(2-methyl-1-oxy-6-trifluoromethylpyridine-3-carbonyl)cyclohex-2-enone]													Post-emergence action: Abutilon (score, nine-step scale) [2]: 2; Post-emergence action: Chenop. (score, nine-step scale) [2]: 1; Post-emergence action: Digitaria (score, nine-step scale) [2]: 2; Post-emergence action: Echino. (score, nine-step scale) [2]: 2; Post-emergence action: Ipopur. (score, nine-step scale) [2]: 2; Post-emergence action: Panicum (score, nine-step scale) [2]: 2; Post-emergence action: Xanth. (score, nine-step scale) [2]: 2
